Assay results from patent US20240336977A1, “MICRORNA-REGULATED BIOMARKERS AND DRUG TARGETS FOR IMPROVING DIAGNOSIS AND TREATMENT OF LUNG OR BREAST CANCER” (West Virginia University Board of Governors on behalf of …, priority 2023, published 2024).

Assays:
HCC1937 = experiment: Drug sensitivity (PRISM) of breast cancer cell line HCC1937; format: cell-based, human; settings: TNBC cell line HCC1937; categorised from IC50, ln(IC50), EC50, ln(EC50)
Text: (§1) Drug Sensitivity Data of Breast Cancer Cell Lines The drug sensitivity data of breast cancer cell lines were obtained from two distinct sources. The first source was the Profiling Relative Inhibition Simultaneously in Mixtures (PRISM) [Corsello, S. M.; Nagari, R. T.; Spangler, R. D.; Rossen, J.; Kocak, M.; Bryan, J. G.; Humeidi, R.; Peck, D.; Wu, X.; Tang, A. A.; et al. Discovering the anti-cancer potential of non-oncology drugs by systematic viability profiling. Nature cancer 2020, 1, 235-248, doi:10.1038/s43018-019-0018-6] secondary screen data, which was provided in the DepMap 19Q4 data release (https://depmap.org/portal, accessed on 23 May 2023). The second source encompassed the Genomics of Drug Sensitivity in Cancer (GDSC1 and GDSC2) datasets [Yang, W.; Soares, J.; Greninger, P.; Edelman, E. J.; Lightfoot, H.; Forbes, S.; Bindal, N.; Beare, D.; Smith, J. A.; Thompson, I. R.; et al. Genomics of Drug Sensitivity in Cancer (GDSC): a resource for therapeutic biomarker discovery in cancer cells. Nucleic acids research 2013, 41, D955-961, doi:10.1093/nar/gksllll, Iorio, F.; Knijnenburg, T. A.; Vis, D. J.; Bignell, G. R.; Menden, M. P.; Schubert, M.; Aben, N.; Goncalves, E.; Barthorpe, S.; Lightfoot, H.; et al. A Landscape of Pharmacogenomic Interactions in Cancer. Cell 2016, 166, 740-754, doi:10.1016/j.cell.2016.06.017, Garnett, M. J.; Edelman, E. J.; Heidorn, S. J.; Greenman, C. D.; Dastur, A.; Lau, K. W.; Greninger, P.; Thompson, I. R.; Luo, X.; Soares, J.; et al. Systematic identification of genomic markers of drug sensitivity in cancer cells. Nature 2012, 483, 570-575, doi:10.1038/nature11005], which were made available through CancerRxGene (https://www.cancerrxgene.org/, accessed on 25 May 2023). In this study, we examined drug sensitivity using various measurements, including IC50, ln(IC50), EC50, and ln(EC50). Further details regarding the categorization of drug sensitivity and resistance can be found in our previous work [Ye, Q.; Mohamed, R.; Dukhlallah, D.; Gencheva, M.; Hu, G.; Pearce, M. C.; Kolluri, S. K.; Marsh, C. B.; Eubank, T. D.; Ivanov, A. V.; et al. Molecular Analysis of ZNF71 KRAB in Non-Small-Cell Lung Cancer. International journal of molecular sciences 2021, 22, doi:10.3390/ijms22073752, Ye, Q.; Singh, S.; Qian, P. R.; Guo, N. L. Immune-Omics Networks of CD27, PD1, and PDL1 in Non-Small Cell Lung Cancer. Cancers (Basel) 2021, 13, doi:10.3390/cancers13174296].
(§2) For drug sensitivity analysis, we classified the breast cancer cell lines as sensitive or resistant to each drug based on the measurements of IC50, ln(IC50), EC50, and ln(EC50), following the classification method described in our previous publications. Both mRNA and protein expression levels were considered in determining the association with drug sensitivity.
(§3) Drug Sensitivity in CCLE. This study used drug sensitivity data of human breast cancer cell lines from various sources. The DepMap portal provided the secondary Profiling Relative Inhibition Simultaneously in Mixtures (PRISM) [Corsello, S. M.; Nagari, R. T.; Spangler, R. D.; Rossen, J.; Kocak, M.; Bryan, J. G.; Humeidi, R.; Peck, D.; Wu, X.; Tang, A. A.; et al. Discovering the anti-cancer potential of non-oncology drugs by systematic viability profiling. Nat. Cancer 2020, 1, 235-248. https://doi.org/10.1038/s43018-019-0018-6] repurposing dataset (PRISM repurposing 19Q4, accessed on 3 Apr. 2023), which includes screening results of 1447 compounds in 22 human breast cancer cell lines. Additionally, we downloaded the Genomics of Drug Sensitivity in Cancer (GDSC1 and GDSC2) datasets [Yang, W.; Soares, J.; Greninger, P.; Edelman, E. J.; Lightfoot, H.; Forbes, S.; Bindal, N.; Beare, D.; Smith, J. A.; Thompson, I. R.; et al. Genomics of Drug Sensitivity in Cancer (GDSC): A resource for therapeutic biomarker discovery in cancer cells. […]

HCC1143 = experiment: Drug sensitivity categorisation of breast cancer cell line HCC1143; format: cell-based, human; settings: TNBC cell line HCC1143; categorised from IC50, ln(IC50), EC50, ln(EC50)
Text: as §1, §2

MCF7 cells = experiment: Drug sensitivity categorisation of breast cancer cell line MCF7; format: cell-based, human; settings: Luminal A MCF7 cells; categorised from IC50, ln(IC50), EC50, ln(EC50)
Text: as §1, §2

HCC1806 = experiment: Drug sensitivity categorisation of breast cancer cell line HCC1806; format: cell-based, human; settings: TNBC cell line HCC1806; categorised from IC50, ln(IC50), EC50, ln(EC50)
Text: as §1, §2

HCC38 = experiment: Drug sensitivity (PRISM) of breast cancer cell line HCC38; format: cell-based, human; settings: TNBC cell line HCC38; categorised from IC50, ln(IC50), EC50, ln(EC50)
Text: as §1, §2, §3

T47D breast cancer cells = settings: cited from earlier work
advanced solid tumors = settings: Phase I, cited from earlier work
human NSCLC cell lines = experiment: PRISM drug response (IC50/EC50) in CCLE NSCLC cell lines; format: cell-based; settings: average across CCLE human NSCLC cell lines, PRISM data
Text: Drug Response. The PRISM (Profiling Relative Inhibition Simultaneously in Mixtures) framework [Corsello, S. M., et al., Discovering the anti-cancer potential of non-oncology drugs by systematic viability profiling. […] 235-248] is a computational tool that estimates drug sensitivities of cancer cell lines using molecular profiling data, particularly gene expression data from the CCLE database. It was obtained the PRISM repurposing dataset of the secondary screen from DepMap release PRISM Repur-posing 19Q4 (https://depmap.org/portal/download/all/, accessed on 25 Jan. 2023). For this study, the PRISM drug response data was used from 94 NSCLC cell lines for 1,448 compounds to investigate the drug sensitivity of specific genes.

[1] = Phase I clinical trials; cited from earlier work
[2] = Phase II clinical studies; cited from earlier work
[3] = patients with advanced solid tumors

Compound | cell line sensitive or resistant to drug (HCC1937) | cell line sensitive or resistant to drug (HCC1143) | cell line sensitive or resistant to drug (MCF7 cells) | cell line sensitive or resistant to drug (HCC1806) | cell line sensitive or resistant to drug (HCC38) | also measured
O=C(NOC[C@H](O)CO)c1ccc(F)c(F)c1Nc1ccc(I)cc1F [PD0325901] | resistant | sensitive | resistant | sensitive | resistant | –
CC[C@@H]1C(=O)OC[C@@H]1Cc1cncn1C [pilocarpine] | sensitive | sensitive | – | sensitive | sensitive | –
N#CC(=C(/N)Sc1ccccc1N)/C(C#N)=C(\N)Sc1ccccc1N [U0126] | – | – | sensitive | – | – | ERK phosphorylation response to MEK inhibition (T47D breast cancer cells): resistance
COc1cccc(-c2cc(=O)c3ccccc3o2)c1N [PD98059] | resistant | – | sensitive | sensitive | sensitive | ERK phosphorylation response to MEK inhibition (T47D breast cancer cells): resistance
c1ccc2c(CCNc3ccc(Nc4ccncc4)cc3)c[nH]c2c1 [serdemetan] | – | sensitive | – | – | sensitive | tumor response (advanced solid tumors; a breast cancer patient): partial response; QTc liability (advanced solid tumors; [3]): exposure-related QTc liability; tolerability (advanced solid tumors; [3]): well tolerated
COc1cccc2c1C(=O)c1c(O)c3c(c(O)c1C2=O)C[C@@](O)(C(C)=O)C[C@@H]3O[C@H]1C[C@H](N)[C@H](O)[C@H](C)O1 [daunorubicin] | – | – | – | – | – | averaged IC50 and EC50 (human NSCLC cell lines): low
O=C(NC[C@H](O)CO)c1ccncc1Nc1ccc(I)cc1F [AS703026] | resistant | – | – | resistant | – | –
O=C(Nc1cccc(Nc2ncc(Br)c(NCCc3cnc[nH]3)n2)c1)N1CCCC1 [BX-912] | – | – | – | – | – | averaged IC50 and EC50 (human NSCLC cell lines): low
C(#CCN1CCCC1)CN1CCCC1 [tremorine] | sensitive | sensitive | – | sensitive | sensitive | –
C[C@@H](N)[C@H]1CC[C@H](C(=O)Nc2ccncc2)CC1 [Y-27632] | – | sensitive | – | sensitive | sensitive | –
Cc1cnc(Nc2ccc(OCCN3CCCC3)cc2)nc1Nc1cccc(S(=O)(=O)NC(C)(C)C)c1 [TG101348] | sensitive | – | sensitive | sensitive | – | –
CNC(=O)c1cc(Oc2ccc(NC(=O)Nc3ccc(Cl)c(C(F)(F)F)c3)cc2)ccn1 [sorafenib] | – | – | – | sensitive | sensitive | –
OCc1ccc(-c2ccc(-c3ccc(CO)s3)o2)s1 [RITA] | sensitive | sensitive | sensitive | sensitive | sensitive | –
N#C/C(=C(/N)Sc1ccc(N)cc1)c1ccccc1C(F)(F)F [BRD-K12244279] | – | – | resistant | – | – | –
Cc1cn(-c2cc(NC(=O)c3ccc(C)c(Nc4nccc(-c5cccnc5)n4)c3)cc(C(F)(F)F)c2)cn1 [nilotinib] | resistant | resistant | – | sensitive | resistant | –
O=C(NOCC1CC1)c1ccc(F)c(F)c1Nc1ccc(I)cc1Cl [PD184352] | – | sensitive | sensitive | – | resistant | tolerability [1]: well tolerated; efficacy [2]: insufficient efficacy
Cc1cc(I)ccc1Nc1c(C(=O)NOCC2CC2)cc(F)c(F)c1F [PD198306] | resistant | sensitive | sensitive | sensitive | resistant | ERK phosphorylation response to MEK inhibition (T47D breast cancer cells): resistance
